# Assay results published in US10421722B2, “Sulfur-containing compounds targeting vesicular acetylcholine transporter” (Washington University, priority 2016, dated 2019).
# Key:
# VAChT [1] = target: VAChT (Rattus norvegicus (Rat), UniProt Q62666); test: Ex vivo autoradiography of rat brain; type: in vivo, Sprague-Dawley rat; conditions: for uptake ratio of radioactivity in striatum versus cerebellum: 30 slices, 60 min post-injection, tail vein; for brain distribution of radioactivity (autoradiograms): 1 h after injection
# Chain of VAChT (Rattus norvegicus (Rat), UniProt Q62666) (Q62666 whole entry): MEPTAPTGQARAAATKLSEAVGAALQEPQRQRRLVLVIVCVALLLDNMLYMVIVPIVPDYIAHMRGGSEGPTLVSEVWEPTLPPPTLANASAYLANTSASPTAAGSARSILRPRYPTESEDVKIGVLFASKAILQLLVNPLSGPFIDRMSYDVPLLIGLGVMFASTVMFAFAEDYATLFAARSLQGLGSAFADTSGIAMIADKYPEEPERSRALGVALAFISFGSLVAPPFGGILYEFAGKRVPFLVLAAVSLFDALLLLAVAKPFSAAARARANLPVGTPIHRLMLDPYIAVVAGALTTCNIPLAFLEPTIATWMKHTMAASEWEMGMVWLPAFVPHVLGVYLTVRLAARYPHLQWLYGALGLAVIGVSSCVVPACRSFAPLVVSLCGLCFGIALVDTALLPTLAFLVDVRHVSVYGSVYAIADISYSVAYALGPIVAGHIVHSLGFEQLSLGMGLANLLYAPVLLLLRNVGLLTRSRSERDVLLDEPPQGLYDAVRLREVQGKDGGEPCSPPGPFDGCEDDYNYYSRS
# Protocol: Ex vivo autoradiography was performed on 6-8 month old male Sprague-Dawley rats to confirm the brain distribution of radiolabeled VAChT ligands. Mature male Sprague-Dawley rats were injected with ˜500 μCi of (−)-[^11C]3 or (−)-[^18F]9a via the tail vein under isoflurane/oxygen anesthesia, respectively. The rats were euthanized after 1 h and the brains were quickly removed and placed in a metal brain matrix with slots spaced at 1 mm intervals. The brains were then frozen in the matrix and sectioned into 100 μm coronal slices. Brain slices were carefully removed from the brain matrix razor blades and placed on a clear sheet covered with film and mounting on glass slides. Then, the brain sections were exposed to the film in an imaging cassette for 12 h before they were counted by the FLA7000. Photographic images were obtained using a flatbed scanner. […] There was also moderate uptake in other regions, which may be caused by the moderate binding activity to σ1 receptor. The quantification of autoradiography from entire 30 brain slices indicated the uptake ratio of radioactivity in striatum versus cerebellum reached 1.75 and 1.54, respectively. (FIGS. 6B and 6D)
# VAChT [2] = conditions: cynomolgus monkey, in vivo
# Protocol: PET studies were performed on adult male cynomolgus monkeys (6-8 kg) with a MicroPET Focus 220 scanner (Concorde/CTI/Siemens Microsystems, Knoxville, Tenn.). The animal was anesthetized using an intramuscular injection with ketamine (10-20 mg/kg) and glycopyrrolate (0.013-0.017 mg/kg) and then transported to the PET scanner suit. After arrival, the animal was intubated with an endotracheal tube and anesthesia was maintained at 0.75-2.0% isoflurane/oxygen throughout the procedure, and then a percutaneous venous catheter was placed for radiotracer injection. A heated water blanket was used to keep the temperature at 37° C. In each MicroPET scanning session, the head was positioned supine in the adjustable head holder with the brain in the center of the field of view. A 10-min transmission scan was performed to check positioning; once confirmed, a 45 min transmission scan was obtained for attenuation correction. Subsequently, a 2 h dynamic emission scan was acquired after administration of 296-410 MBq of (−)-[^11C]3 or (−)-[^18F]9a via the venous catheter. PET scans were collected from 0-120 min with the following time frames: 3×1 min, 4×2 min, 3×3 min and 20×5 min. PET image reconstructed resolution was <2.0 mm full width half maximum for all 3 dimensions at the center of the field of view. Emission data were corrected using individual attenuation and model-based scatter correction and reconstructed using filtered back projection. The first baseline PET image for each animal acted as the target image with the MPRAGE and subsequent PETs co-registered using automated image registration program AIR. All MPRAGE-based volume of interest (VOI) analyses were accomplished by experienced investigators. For quantitative analyses, three-dimensional ROIs (striatum, cerebellum, frontal cortex, occipital cortex, temporal, midbrain, hippocampus and thalamus) were transformed to the baseline PET space and then overlaid on all reconstructed PET images to obtain time-activity curves. Activity measures were standardized to body weight and dose of radioactivity injected to yield standardized uptake value (SUV).
# [3] = Radiometabolite analysis of NHP arterial plasma; type: in vivo, cynomolgus monkey
# Protocol: In order to further understand the kinetic property, radioactive metabolite analysis on HPLC was performed for NHP plasma. (−)-[^18F]9a was chosen for this study because of the high uptake and longer half live of ^18F. Arterial blood samples (1.2-1.5 mL) were collected at 2, 5, 15, 30, and 60 min post-injection of the radiotracer in a heparinized syringe. Aliquots of whole blood (1 mL) were counted in a well counter, then centrifuged to separate red blood cells from plasma. Aliquots of plasma (400 μL) were deproteinated using ice-cold methanol (0.92 mL) and separated by centrifugation. The solvent extract was then injected onto HPLC to identify the percentage of radioactive parent compound versus any radiolabeled metabolites. The HPLC system consisted of an Agilent SB C-18 analytic HPLC column (250 mm×4.6 mm) and an UV detector with wavelength set at 254 nm. The mobile phase was 43% acetonitrile in 0.1 M ammonium formate buffer (pH 4.5), and the flow rate was 1.0 mL/min. The HPLC fractions were collected at 1 min intervals for 16 min; each fraction was counted by a well counter to determine the radioactivity of each collection. The results were corrected for background radiation and physical decay.
# human VAChT = human VAChT (Homo sapiens (Human), UniProt Q16572); test: VAChT binding, competition against [3H]Vesamicol; conditions: Table 2; oxalate form; expressed human VAChT; mean ± SEM; read-out: Ki (nM) VAChT
# Chain of human VAChT (Q16572 whole entry): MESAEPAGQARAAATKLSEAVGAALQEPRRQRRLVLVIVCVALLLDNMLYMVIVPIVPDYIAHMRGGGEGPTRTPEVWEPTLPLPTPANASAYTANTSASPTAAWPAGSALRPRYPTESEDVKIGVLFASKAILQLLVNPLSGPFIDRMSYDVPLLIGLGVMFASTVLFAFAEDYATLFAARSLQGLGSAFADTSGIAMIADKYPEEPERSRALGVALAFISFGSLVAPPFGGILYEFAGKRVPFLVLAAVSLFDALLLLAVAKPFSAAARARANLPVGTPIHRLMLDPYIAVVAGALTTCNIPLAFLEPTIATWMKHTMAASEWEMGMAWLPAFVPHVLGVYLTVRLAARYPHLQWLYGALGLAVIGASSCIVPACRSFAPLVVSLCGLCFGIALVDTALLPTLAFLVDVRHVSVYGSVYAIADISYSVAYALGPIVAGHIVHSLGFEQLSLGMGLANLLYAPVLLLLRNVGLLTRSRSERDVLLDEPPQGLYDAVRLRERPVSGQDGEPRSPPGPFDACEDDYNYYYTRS
# Protocol: (§1) In vitro binding studies were performed to measure the affinities to the VAChT and σ1 and σ2 receptors. VAChT binding was assayed using membrane homogenate from PC12 cells which overexpress human VAChT.^8 The σ1 and σ2 binding affinities were assayed in […], respectively.
# The test compounds were assayed in increments of 10-fold from 0.1 to 10,000 nM concentration. The surfaces of containers were pre-coated with Sigmacote (Sigma-Aldrich, Mo.). Samples containing 200 μg postnuclear supernatant in 200 μL of 110 mM potassium tartrate, 20 mM HEPES (pH 7.4 with KOH), 1 mM dithiothreitol, and 0.02% sodium azide were incubated at 22° C. for 24 h. A volume of 90 μL was filtered in duplicate through GF/F glass fiber filters coated with polyethylenimine and washed. Filter-bound radioactivity was determined by liquid scintillation spectrometry for 10 min per sample. Averaged data were fitted by regression with a rectangular hyperbola to estimate Ki value. All the compounds were independently assayed at least two times.
# σ2 receptor = σ2 receptor (Rattus norvegicus (Rat), UniProt Q5U3Y7); test: σ2 receptor binding, [3H]DTG; conditions: for Ki: oxalate form, homogenates of rat liver; for Selectivity ratio VAChT/σ2: ratio of Ki values
# Chain of σ2 receptor (Q5U3Y7 whole entry): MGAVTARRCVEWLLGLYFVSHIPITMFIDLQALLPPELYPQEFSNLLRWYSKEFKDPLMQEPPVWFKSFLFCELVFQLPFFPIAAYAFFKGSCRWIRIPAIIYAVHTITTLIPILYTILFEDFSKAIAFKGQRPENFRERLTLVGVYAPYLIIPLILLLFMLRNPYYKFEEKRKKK
# Protocol: In vitro binding studies were performed to measure the affinities to the VAChT and σ1 and σ2 receptors. […]
# (§2) Briefly, to measure the σ1 receptor binding affinity, we use guinea pig brain membrane homogenates (˜300 μg protein) tissues as the receptor resource and ˜5 nM [^3H](+)-Pentazocine (34.9 Ci/mmol, Perkin Elmer, Boston, Mass.) as the radioligand. The mixture was incubated in 96-well plates for 90 min at room temperature. Nonspecific binding was determined from samples containing 10 μM of nonradioactive Haloperidol. After 90 min, the mixture was transferred into a 96-well fiberglass filter plate (Millipore, Billerica, Mass.) presoaked with 100 μL of 50 mM Tris-HCl buffer at pH 8.0 for 60 min, followed by addition of 150 μL of ice-cold wash buffer (10 mM Tris-HCl, 150 mM NaCl, pH 7.4). The harvested samples were filtered rapidly and washed with 3×200 μL portions of ice-cold wash buffer, and the filterers were counted by a Wallac 1450 MicroBeta liquid scintillation counter (Perkin-Elmer, Boston, Mass.). […] The mixture was incubated for 120 min at room temperature. Nonspecific binding was determined from samples containing 10 μM of nonradioactive Haloperidol. All other procedures were similar to those described for the σ1 receptor binding assay above. Data from the competitive binding experiments were modeled using nonlinear regression analysis to determine the concentration that inhibits 50% of the specific binding of the radioligand. Competitive binding curves were best fit to a one-site fit and gave pseudo-Hill coefficients of 0.6-1.0. Ki values were calculated using the method of Cheng and Prusoff,^35 then presented as the mean±SEM.
# σ1 receptor = σ1 receptor (Cavia porcellus (Guinea pig), UniProt Q60492); test: σ1 receptor binding, [3H](+)-Pentazocine; conditions: for Ki: oxalate form, homogenates of guinea pig brain, mean ± SEM; for Selectivity ratio VAChT/σ1: ratio of Ki values
# Chain of σ1 receptor (Q60492 whole entry): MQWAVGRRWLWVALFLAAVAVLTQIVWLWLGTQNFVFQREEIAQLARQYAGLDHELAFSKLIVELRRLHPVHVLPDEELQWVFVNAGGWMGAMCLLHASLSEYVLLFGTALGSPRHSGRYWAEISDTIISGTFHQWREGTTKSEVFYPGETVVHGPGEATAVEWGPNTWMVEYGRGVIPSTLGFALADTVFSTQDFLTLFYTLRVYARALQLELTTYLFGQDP
# Protocol: as §1, §2
uptake ratio of radioactivity in striatum versus cerebellum (VAChT [1]),brain entry (VAChT [2]),time at which striatal SUV reached maximum (VAChT [2]),"percentage of parent compound in plasma ([3]; NHP arterial plasma, 2 min post-injection)","percentage of parent compound in plasma ([3]; NHP arterial plasma, 5 min post-injection)","percentage of parent compound in plasma ([3]; NHP arterial plasma, 15 min post-injection)","percentage of parent compound in plasma ([3]; NHP arterial plasma, 30 min post-injection)","percentage of parent compound in plasma ([3]; NHP arterial plasma, 60 min post-injection)","percentage of hydrophilic radioactive metabolite ([3]; NHP arterial plasma, peaked after 30 min)","metabolism in plasma ([3]; NHP plasma, HPLC metabolite analysis)",maximum standardized uptake value (SUV) in striatum (VAChT [2]),Ki (human VAChT),Ki (σ2 receptor),Selectivity ratio VAChT/σ2 (σ2 receptor),Ki (σ1 receptor),Selectivity ratio VAChT/σ1 (σ1 receptor),Structure (SMILES),brain distribution of radioactivity (autoradiograms) (VAChT [1]),regional brain accumulation (VAChT [2])
1.75,able to enter the NHP brain,10 min,,,,,,,,4.0,,,,,,"[11CH3]Sc1ccc(C(=O)C2CCN([C@@H]3Cc4ccccc4C[C@H]3O)CC2)cc1 (single isomer, unassigned) [(−)-[^11C]3]",high accumulation in the VAChT enriched striatum,highest accumulation in the striatal region
,,,,,,,,,,,13.8 ± 1.1 nM,> 1000 nM,>72,23.3 ± 2.9 nM,1.7,"CSc1ccc(C(=O)C2CCN([C@@H]3Cc4ccccc4C[C@H]3O)CC2)cc1 (single isomer, unassigned) [(+)-3]",,
,,,,,,,,,,,1.4 nM,> 1000 nM,>714,19 ± 5.6 nM,13.6,"CSc1ccc(C(=O)C2CCN(C3Cc4ccccc4CC3O)CC2)cc1 (single isomer, unassigned; (-)) [(−)-3]",,

# Second part, the compound before the results:
Structure (SMILES),uptake ratio of radioactivity in striatum versus cerebellum (VAChT [1]),brain entry (VAChT [2]),time at which striatal SUV reached maximum (VAChT [2]),"percentage of parent compound in plasma ([3]; NHP arterial plasma, 2 min post-injection)","percentage of parent compound in plasma ([3]; NHP arterial plasma, 5 min post-injection)","percentage of parent compound in plasma ([3]; NHP arterial plasma, 15 min post-injection)","percentage of parent compound in plasma ([3]; NHP arterial plasma, 30 min post-injection)","percentage of parent compound in plasma ([3]; NHP arterial plasma, 60 min post-injection)","percentage of hydrophilic radioactive metabolite ([3]; NHP arterial plasma, peaked after 30 min)","metabolism in plasma ([3]; NHP plasma, HPLC metabolite analysis)",maximum standardized uptake value (SUV) in striatum (VAChT [2]),Ki (human VAChT),Ki (σ2 receptor),Selectivity ratio VAChT/σ2 (σ2 receptor),Ki (σ1 receptor),Selectivity ratio VAChT/σ1 (σ1 receptor),brain distribution of radioactivity (autoradiograms) (VAChT [1]),regional brain accumulation (VAChT [2])
"O=C(c1ccc(SCC[18F])cc1)C1CCN([C@@H]2Cc3ccccc3C[C@H]2O)CC1 (single isomer, unassigned) [(−)-[^18F]9a]",1.54,able to enter the NHP brain,6 min,69%,48%,27%,21%,15%,70%,quickly metabolized in the plasma,,,,,,,high accumulation in the VAChT enriched striatum,highest accumulation in the striatal region
"CS(=O)(=O)c1ccc(C(=O)C2CCN([C@@H]3Cc4ccccc4C[C@H]3O)CC2)cc1 (single isomer, unassigned) [(+)-2]",,,,,,,,,,,,193 ± 17.8 nM,> 1000 nM,>5,18.5 ± 3.4 nM,0.1,,
"CS(=O)(=O)c1ccc(C(=O)C2CCN(C3Cc4ccccc4CC3O)CC2)cc1 (single isomer, unassigned; (-)) [(−)-2]",,,,,,,,,,,,4.1 ± 0.9 nM,> 1000 nM,>243,34.7 ± 4.9 nM,8.5,,
